Laboratory results taken from patent US20240218073A1, “IMMUNOMODULATORY ANTI-CD73 ANTIBODIES AND USES THEREOF” (Corvus Pharmaceuticals, Inc., priority 2019, published 2024).

Experiments:
[1] = system: circulating CD73^POS B cells; test: Phase 1 trial in cancer patients: peripheral blood immunophenotyping by flow cytometry; format: in vivo, human; settings: ciforadenant monotherapy
[2] = system: B lymphocytes; test: B cell activation and maturation markers by flow cytometry in vitro; format: cell-based, human
Experimental: FIG. 6 are bar graphs showing CPI-006 directly activates B lymphocytes. Purified B cells were incubated overnight with 10 μg/mL human IgG1 isotype control or CPI-006 or anti-IgM microbeads, a positive control for BCR stimulation. Expression of activation markers CD69, CD83, CD86, CD25 or MHC-II was measured by flow cytometry. Mean fluorescence intensity (MFI) was determined for each activation marker and was normalized to the untreated condition for each donor. The figure legend from top to bottom is representative of each group of four bars from left to right. (N=3-5 donors).
FIG. 7 illustrates expression of CD69 on B cells (CD19+CD3−) as measured by flow cytometry and reported by MFI. Human PBMCs were incubated overnight with 10 μg/mL CPI-006 with or without NECA over a range of concentrations or 10 μM APCP. Expression of CD69 on B cells (CD19+CD3−) was measured by flow cytometry and MFI is reported. Error bars represent mean±SD. *p<0.05, **p<0.01 as determined by t-test.
Human B cells were stimulated in vitro with CPI-006 or CPX-016 (1 ug/ml) or an isotype control for 3 days. IgD and CD27 expression were evaluated by flow cytometry. The mean fluorescence intensity (MFI) of each marker was determined in FlowJo and normalized to CPX-016. N=3 donors shown. For each group of two bars, left bar represents treatment with […] and right bar represents treatment with CPX-006.
FIG. 13A: Purified B cells from 3-5 healthy donors were incubated overnight with human IgG1 isotype control or CPI-006 (10 μg/mL) or anti-IgM microbeads, a positive control for BCR stimulation. Expression of activation markers CD69, CD83, CD86, or MHC-II was measured by flow cytometry. […] Mean fluorescence intensity (MFI) was determined for each marker and was normalized to the untreated or isotype control for each donor. […] Expression of CD69 (MFI) was measured by flow cytometry. […] CD69 and CD73 were measured on B cells by flow cytometry. […] Expression of CD69 on B cells (CD19^POSCD3^NEG) was measured by flow cytometry. […]

[3] = system: T cells; test: T cell proliferation of anti-CD3/anti-CD28 activated PBMCs in the presence of AMP; format: cell-based, human; settings: 500 nM antibody, 13 donors
Experimental: FIG. 12A: CD73 catalytic activity was measured with MDA-MB-231 cells or MDA-MB-231 CD73 CRISPR cells in the presence of CPI-006, oleclumab, or 1 mM APCP by adding 250 μM AMP and measuring phosphate levels in the cell culture supernatant. FIG. 12B: Human PBMCs were incubated with AMP in the presence of CPI-006, oleclumab, or isotype control antibody at the saturating concentration of 300 nM. After 4 hours of incubation, the AMP remaining in the supernatant was quantified using the CellTiterGlo assay as described in the Methods. Percentage of inhibition was plotted. Data represent 9 individual donors and error bars represent mean±SD. ****p<0.0001 as determined by t-test. FIG. 12C: Human PBMCs were activated with anti-CD3/anti-CD28 in the presence of AMP and a range of doses of CPI-006, oleclumab, or isotype control antibody. T cell proliferation was assessed by flow cytometry. T cell proliferation for 13 donors treated with 500 nM CPI-006 or oleclumab or 890 nM isotype control. Error bars represent mean±SD. *p<0.05, ***p<0.001, and ****p<0.0001 as determined by t-test. […] After 4 days in culture, IFNg levels in the supernatant were measured by AlphaLISA (Perkin Elmer). […] Error bars represent mean±SD. *p<0.05 and **p<0.01 as determined by t-test. […]

[4] = target: T1, cellular CD73 (Homo sapiens, UniProt P21589); test: CD73 catalytic activity on MDA-MB-231 cells (phosphate released from AMP); settings: 250 μM AMP, baseline from CRISPR CD73 knockout cells and 1 mM APCP
T1 sequence (P21589 27-549): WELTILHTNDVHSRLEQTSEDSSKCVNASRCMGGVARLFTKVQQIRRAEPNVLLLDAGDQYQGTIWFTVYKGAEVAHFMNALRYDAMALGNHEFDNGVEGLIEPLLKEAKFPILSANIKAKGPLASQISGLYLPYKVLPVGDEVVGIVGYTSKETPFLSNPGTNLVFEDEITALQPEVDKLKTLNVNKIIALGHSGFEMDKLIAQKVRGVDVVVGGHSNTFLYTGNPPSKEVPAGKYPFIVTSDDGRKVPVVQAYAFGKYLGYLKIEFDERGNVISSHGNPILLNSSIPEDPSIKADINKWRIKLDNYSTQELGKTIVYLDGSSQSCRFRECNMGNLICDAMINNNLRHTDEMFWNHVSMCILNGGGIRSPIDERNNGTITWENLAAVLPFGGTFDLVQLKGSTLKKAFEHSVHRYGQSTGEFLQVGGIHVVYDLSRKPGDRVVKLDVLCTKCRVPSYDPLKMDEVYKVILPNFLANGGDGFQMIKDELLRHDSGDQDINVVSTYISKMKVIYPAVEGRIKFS

[5] = target: T2, CD73 expressed on primary human peripheral blood mononuclear cells (Homo sapiens, UniProt P21589); test: CD73 enzymatic activity on primary human PBMCs (AMP remaining, CellTiterGlo); settings: 300 nM antibody, 4 hours incubation with AMP, 9 donors
T2 sequence (P21589 27-549): T1 sequence (P21589 27-549)

[6] = target: T3, human CD73 (human, UniProt P21589 27-549); test: bio-layer interferometry (Octet HTX, 25 C; antibody on anti-human IgG Fc capture sensors, antigen in solution from 300 nM, 1:1 model)
T3 construct: also called CD73 antigen; 5'-nucleotidase
T3 sequence (looked up): T1 sequence (P21589 27-549)

## Cc1ccc(-c2nc(N)nc3c2nnn3Cc2cccc(CO[C@H]3CCOC3)n2)o1 [ciforadenant]
[1]
  B cell numbers or immunophenotype: no changes in B cell numbers or immunophenotype

## CCNC(=O)[C@H]1O[C@@H](n2cnc3c(N)ncnc32)[C@H](O)[C@@H]1O [NECA, 5′-(N-ethylcarboxamido)adenosine, reference compound]
[2]; human PBMCs, CPI-006 10 μg/mL overnight, NECA over a range of concentrations
  effect on induction of activation markers by CPI-006: did not block the induction of activation markers by CPI-006

## oleclumab: another anti-CD73 antibody that binds a non-overlapping epitope; expressed as human lambda/IgG1-TM antibody
[3]
  T cell proliferation: restored T cell proliferation in a subset of donors but did not reach the magnitude of the CPI-006 response
[2]; antibodies that do not cross-block CPI-006
  B cell activation (CD69 expression) by other anti-CD73 antibodies: fail to induce activation
[4]
  CD73 activity (free phosphate levels generated upon conversion of AMP to adenosine): only partially reduced CD73 activity
[5]
  enzymatic activity of CD73 on PBMCs: partial effect on enzymatic activity

B1: CPI-006 (antibody, human IgG1, kappa, N297Q, V domains shown)
VH: QVQLVQSGAEVEKPGASVKVSCKASGYTFTSYWITWVRQAPGQGLEWMGDIYPGSGNTNYNEKFKTRVTITADKSTSTAYMELSSLRSEDTAVYYCAKEGGLTTEDYALDYWGQGTLVTVSS
VL: EIVLTQSPATLSLSPGERATLSCRASKNVSTSGYSYMHWYQQKPGQAPRLLIYLASNLESGIPPRFSGSGYGTDFTLTINNIESEDAAYYFCQHSRELPFTFGQGTKVEIKR
[6]
  Kd: 0.2 nM

B2: CPI-006 immunoglobulin Fab fragments: Fab fragments of CPI-006 prepared using the Pierce Fab Preparation kit (antibody, chains of the INN, looked up, V domains shown)
VH: B1 VH
VL: EIVLTQSPATLSLSPGERATLSCRASKNVSTSGYSYMHWYQQKPGQAPRLLIYLASNLESGIPPRFSGSGYGTDFTLTINNIESEDAAYYFCQHSRELPFTFGQGTKVEIK
modifications: Fab
notes: Fab fragments of CPI-006 prepared using the Pierce Fab Preparation kit
[2]; purified B cells, overnight, equimolar to 10 μg/mL CPI-006
  expression levels of CD69 with Fab fragments: minimal effect on expression levels of CD69
